Data taken from publication PMC6921279 (Frontiers in Endocrinology, 2019).
Ends that are not written are not given here.

How the values were obtained:
[1] = tested on: CRF1R-mediated ERK1/2 phosphorylation; experiment: Modulation of CRF-stimulated ERK1/2 phosphorylation in COS-7 cells expressing HA-CRF1R; type: cell-based; details: 30 min pretreatment, 100 nM CRF, 5 min
Protocol: Plasmid pRK5 encoding the carboxyl terminus of βARK that contains its βγ-binding domain (ct-βARK) was kindly provided by Dr. W. Koch (Center for Translational Medicine, Temple University, Philadelphia, PA), which is a scavenger for G protein βγ subunits ([25]). […] Plasmid pUSEamp encoding dominant-negative Akt-K179M (dn-Akt) was from Upstate Biotechnology (Lake Placid, NY).
COS-7 cells (from the American Type Culture Collection) were cultured at 37°C in a humidified atmosphere of 95% air, 5% CO2, in DMEM supplemented with 10% FBS, 100 μg/ml streptomycin, and 100 units/ml penicillin (COS-7 growth medium). Transient transfections were performed using LipofectAMINE (Life Technologies: Gaithersburg, MD) as described previously ([27]). Cells were seeded at 8 × 10^5 cells/10-cm dish in COS-7 medium and cultured for 3 days before transfection. COS-7 cells were transfected in 5 ml/dish OptiMEM containing 10 μg/ml LipofectAMINE with empty vector, pcDNA3 encoding the HA-CRF1R or the HA-CRF1R-Δ386 mutant. […] After replacing the transfection medium with fresh growth medium, transfected COS-7 cells were cultured for 1 day. Subsequently, cells were re-seeded in 6-well plates and cultured for an additional day prior to the experiment.
(§1) The protocols for measuring total and phosphorylated ERK1/2, c-Src, PYK2, Akt, and EGFR have been previously published ([28], [29]). After cells were cultured to 60–70% confluence, they were serum-deprived for 24 h. On the day of the experiment, cells were treated with the indicated ligands and inhibitors. […] After treatment, cells were placed on ice, the media was aspirated, and the cells were washed twice with ice-cold PBS and lysed in 100 μl of Laemmli sample buffer 1X. The lysates were briefly sonicated, heated at 95°C for 5 min, and centrifuged for 5 min at 14,000 rpm. Resulting supernatants were loaded in separate lanes of a 10% SDS-PAGE gels and electrophoresed. Next, Western transfer on to PDVF membranes was completed. The Western blots were then probed with specific antibodies targeting phosphorylated and non-phosphorylated forms of ERK1/2, c-Src, PYK2, Akt, and EGFR for primary immunodetection. After blots were probed with horseradish peroxidase-conjugated secondary antibody, protein bands were visualized with enhanced chemiluminescence ECL reagent (Amersham Pharmacia Biotech, Piscataway, NJ or Pierce Biotechnology, Rockford, IL) and scanned using the GS-800 Calibrated Imaging Densitometer (Bio-Rad). The labeled bands were quantified using the Quantity One 4.6.3 software program (Bio-Rad).
(§2) Total cell lysates were separated by SDS-PAGE and analyzed by immunoblotting with anti-p-ERK1/2 Thr^202/Tyr^204, as described in Materials and Methods. ERK1/2 phosphorylation was quantitated by densitometry, and mean values were plotted from five independent experiments.
Total cell lysates were separated by SDS-PAGE and analyzed by immunoblotting with anti-p-ERK1/2 Thr^202/Tyr^204 (A–D) or anti-p-EGFR Tyr^1068 (E), as described in Materials and Methods. ERK1/2 and EGFR phosphorylation were quantitated by densitometry, and mean values were plotted from three to five independent experiments.
Total cell lysates were separated by SDS-PAGE and analyzed by immunoblotting with anti-p-ERK1/2 Thr^202/Tyr^204, as described in Materials and Methods. ERK1/2 phosphorylation was quantitated by densitometry, and mean values were plotted from three to five independent experiments.

fetal hippocampal cells = details: H89 pretreatment; cited from earlier work
Source text: (§3) Defining the molecular mechanisms for ERK1/2 signaling by a GPCR has become a significant focus of signal transduction research due to the multifaceted pathways mediating signaling via the ERK1/2-MAP kinase cascade. A significant role of the ERK1/2-MAP kinase pathway has been recognized in the biological action of both CRF1R and CRF2R. ERK1/2 is widely distributed in the brain and is considered an essential regulator of the molecular processes involved in response to stress ([6], [64]). It is well-established that most GPCRs signal via ERK1/2-MAP kinase cascades through distinct Gi-, Gs-, and ...

[2] = tested on: CATH.a, rat fetal microglial, locus coeruleus, and transfected CHO cells; details: H89; cited from earlier work
Source text: as §3

EGFR = details: Ucn1, CRF1R-expressing HEK293; cited from earlier work
[3] = tested on: CRF1R-expressing SK-N-MC neuroblastoma cells; experiment: ERK1/2 phosphorylation in CRF1R-expressing SK-N-MC neuroblastoma cells; type: cell-based; details: 100 ng/ml FGF, 2 or 5 min
Protocol: as §1, with “After blots were probed with horseradish peroxidase-conjugated secondary antibody, protein bands were visualized with enhanced chemiluminescence ECL reagent (Amersham Pharmacia Biotech, Piscataway, NJ or Pierce Biotechnology, Rockford, IL) and scanned using the GS-800 Calibrated Imaging Densitometer (Bio-Rad).” left out
Supplementary Figure S2. […] Total cell lysates were separated by SDS-PAGE and analyzed by immunoblotting with anti-p-ERK1/2 Thr202/Tyr204, as described in materials and methods. […]

[4] = tested on: PMA-stimulated ERK1/2 phosphorylation; experiment: Modulation of PMA-stimulated ERK1/2 phosphorylation in COS-7 cells; type: cell-based; details: BIM 1 μM, 30 min pretreatment; 100 nM PMA, 15 min
Protocol: COS-7 cells (from the American Type Culture Collection) were cultured at 37°C in a humidified atmosphere of 95% air, 5% CO2, in DMEM supplemented with 10% FBS, 100 μg/ml streptomycin, and 100 units/ml penicillin (COS-7 growth medium). Transient transfections were performed using LipofectAMINE (Life Technologies: Gaithersburg, MD) as described previously ([27]). Cells were seeded at 8 × 10^5 cells/10-cm dish in COS-7 medium and cultured for 3 days before transfection. COS-7 cells were transfected in 5 ml/dish OptiMEM containing 10 μg/ml LipofectAMINE with empty vector, pcDNA3 encoding the HA-CRF1R or the HA-CRF1R-Δ386 mutant. […]
The protocols for measuring total and phosphorylated ERK1/2, c-Src, PYK2, Akt, and EGFR have been previously published ([28], [29]). […] The labeled bands were quantified using the Quantity One 4.6.3 software program (Bio-Rad).
as §2, with “Figure 2 CRF-induced ERK1/2 phosphorylation is dependent on Gi protein. […] Total” for “Total”, “experiments. […]” for “experiments.”
Total cell lysates were separated by SDS-PAGE and analyzed by immunoblotting with anti-p-ERK1/2 Thr202/Tyr204, as described in materials and methods. […]

[5] = tested on: basal ERK1/2 or Akt phosphorylation; experiment: Basal ERK1/2 and Akt phosphorylation in COS-7 cells expressing CRF1R; type: cell-based; details: 1 µM BIM, 30 min
Protocol: as §1, with “After blots were probed with horseradish peroxidase-conjugated secondary antibody, protein bands were visualized with enhanced chemiluminescence ECL reagent (Amersham Pharmacia Biotech, Piscataway, NJ or Pierce Biotechnology, Rockford, IL) and scanned using the GS-800 Calibrated Imaging Densitometer (Bio-Rad).” left out, “(Bio-Rad). […]” for “(Bio-Rad).”
Total cell lysates were separated by SDS-PAGE and analyzed by immunoblotting with anti-p-Akt Ser473 or anti-p-ERK1/2 Thr202/Tyr204, as described in materials and methods. […]

Molecule: O=S(=O)(NCCNC/C=C/c1ccc(Br)cc1)c1cccc2cnccc12 [H89]
- effect on CRF-stimulated ERK1/2 phosphorylation ([1]; H89 500 nM): failed to inhibit CRF-stimulated ERK1/2 phosphorylation
- effect on CRF1R-mediated ERK phosphorylation (fetal hippocampal cells): only produced a small reduction in CRF1R-mediated ERK phosphorylation
- effect on CRF1R-mediated ERK signaling [2]: failed to inhibit CRF1R-mediated ERK signaling

Molecule: Ucn1: urocortin 1 (DNPSLSIDLTFHLLRTLLELARTQSQRERAEQNRIIFDSV; ends and bridges not checked; UniProt P55089 83-122, looked up)
- EGFR transactivation (EGFR): stimulated EGFR transactivation

Molecule: fibroblast growth factor
- ERK1/2 phosphorylation [3]: induced strong ERK1/2 phosphorylation

Molecule: CN(C)CCCn1cc(C2=C(c3c[nH]c4ccccc34)C(=O)NC2=O)c2ccccc21 [BIM, bisindolylmaleimide I]
- CRF-stimulated ERK1/2 activation, fold increase ([1]; BIM 1 μM): ~ 1.6 -fold increase over CRF stimulation
- effect on PMA-induced ERK1/2 phosphorylation [4]: inhibited ERK1/2 phosphorylation resulting from PMA-induced PKC activation
- effect on basal ERK1/2 activation [5]: small increase in ERK1/2 activation
